Results on 14 compounds are retold here after PMC12136037, “Type II kinase inhibitors that target Parkinson’s disease–associated LRRK2” (Science Advances, 2025).

Common to all, as to assay: DSF 100 kinase selectivity screen;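 also: compound tested at 20 µM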
What all share (type): binding

Experiment [1] deals with T1, ~100 representative kinases (Homo sapiens, UniProt Q6PHR2).
T1 construct: Recombinant protein kinase domains with a concentration of 2 μM
T1 sequence (Q6PHR2 1-472): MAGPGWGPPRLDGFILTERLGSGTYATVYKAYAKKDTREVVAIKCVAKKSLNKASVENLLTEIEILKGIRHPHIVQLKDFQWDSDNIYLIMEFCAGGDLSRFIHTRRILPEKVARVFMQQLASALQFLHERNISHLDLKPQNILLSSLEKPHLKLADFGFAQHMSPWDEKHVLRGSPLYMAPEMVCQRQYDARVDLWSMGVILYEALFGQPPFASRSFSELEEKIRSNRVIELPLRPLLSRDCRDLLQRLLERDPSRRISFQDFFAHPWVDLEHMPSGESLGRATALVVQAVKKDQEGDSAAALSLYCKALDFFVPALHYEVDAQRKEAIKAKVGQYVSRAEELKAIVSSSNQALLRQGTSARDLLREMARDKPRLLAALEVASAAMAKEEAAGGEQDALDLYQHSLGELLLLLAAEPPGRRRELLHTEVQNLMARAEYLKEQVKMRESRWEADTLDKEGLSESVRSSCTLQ
The conditions noted are these: Protein ULK3; DSF; average of three replicates. Put shortly:
(§1)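 Each kinase domain, at 2 μM, is mixed with 20 μM test compound and SYPRO Orange in Hepes (20 mM, pH 7.5) with 500 mM NaCl. Temperature is then raised at 3°C/min and fluorescence-monitored unfolding yields the melting temperature change, ΔTm in degrees Celsius.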

In experiment [2] the target is T2, ~100 representative kinases (Homo sapiens, UniProt P45985).
T2 construct: Recombinant protein kinase domains with a concentration of 2 μM
T2 sequence (P45985 1-399): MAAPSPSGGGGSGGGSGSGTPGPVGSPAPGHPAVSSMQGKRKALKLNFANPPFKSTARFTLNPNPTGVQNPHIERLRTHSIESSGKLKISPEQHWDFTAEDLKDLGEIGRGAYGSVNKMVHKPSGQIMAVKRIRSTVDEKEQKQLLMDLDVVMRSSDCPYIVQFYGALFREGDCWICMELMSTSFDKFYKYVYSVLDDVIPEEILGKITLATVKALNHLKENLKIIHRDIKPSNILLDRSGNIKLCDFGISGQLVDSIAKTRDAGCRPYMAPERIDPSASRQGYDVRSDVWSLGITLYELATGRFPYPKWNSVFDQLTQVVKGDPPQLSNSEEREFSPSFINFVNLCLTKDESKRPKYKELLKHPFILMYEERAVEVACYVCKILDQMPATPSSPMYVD
The note with it: protein MAP2K4; average of three replicates. Put shortly: as §1

For experiment [3], the target named is T3, ~100 representative kinases (Homo sapiens, UniProt O00444).
T3 construct: Recombinant protein kinase domains with a concentration of 2 μM
T3 sequence (O00444 1-970): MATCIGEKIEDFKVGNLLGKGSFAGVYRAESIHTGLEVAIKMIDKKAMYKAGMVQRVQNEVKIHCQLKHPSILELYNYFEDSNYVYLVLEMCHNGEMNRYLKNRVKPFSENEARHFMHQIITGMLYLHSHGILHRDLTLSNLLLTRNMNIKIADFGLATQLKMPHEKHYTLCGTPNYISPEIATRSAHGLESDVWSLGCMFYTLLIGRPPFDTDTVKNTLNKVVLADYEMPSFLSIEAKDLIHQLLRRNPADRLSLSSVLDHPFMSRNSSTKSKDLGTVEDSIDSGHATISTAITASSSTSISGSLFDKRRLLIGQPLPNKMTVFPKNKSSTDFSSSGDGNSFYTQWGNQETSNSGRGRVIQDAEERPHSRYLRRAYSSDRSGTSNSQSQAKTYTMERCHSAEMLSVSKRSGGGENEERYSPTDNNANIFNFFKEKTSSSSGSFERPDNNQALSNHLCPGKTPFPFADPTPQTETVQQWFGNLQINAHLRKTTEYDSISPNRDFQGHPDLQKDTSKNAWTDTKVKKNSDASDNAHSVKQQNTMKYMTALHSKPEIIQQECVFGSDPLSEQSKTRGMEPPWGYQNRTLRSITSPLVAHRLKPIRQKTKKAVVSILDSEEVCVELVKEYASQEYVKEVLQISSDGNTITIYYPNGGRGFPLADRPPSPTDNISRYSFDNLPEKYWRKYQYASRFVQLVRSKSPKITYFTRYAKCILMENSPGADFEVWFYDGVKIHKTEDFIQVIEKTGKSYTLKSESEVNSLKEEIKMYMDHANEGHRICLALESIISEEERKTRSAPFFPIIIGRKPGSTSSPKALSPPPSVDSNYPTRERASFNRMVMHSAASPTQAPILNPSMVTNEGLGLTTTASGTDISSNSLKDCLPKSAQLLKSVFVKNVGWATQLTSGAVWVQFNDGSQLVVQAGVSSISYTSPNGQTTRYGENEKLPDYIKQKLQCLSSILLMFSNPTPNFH
The note with it: protein PLK4; average of three replicates. In outline: as §1

Experiment [4] addresses T4, ~100 representative kinases (Homo sapiens, UniProt O95747).
T4 construct: Recombinant protein kinase domains with a concentration of 2 μM
The conditions noted are these: protein OSR1; average of three replicates. Put shortly:
as §1

The target in experiment [5] is T5, ~100 representative kinases (Homo sapiens, UniProt P29317).
T5 construct: Recombinant protein kinase domains with a concentration of 2 μM
The conditions noted are these: Protein EPHA2; average of three replicates. Put shortly:
as §1

The target of experiment [6] is T6, ~100 representative kinases (Homo sapiens, UniProt P22830).
T6 construct: Recombinant protein kinase domains with a concentration of 2 μM
T6 sequence (P22830 55-423): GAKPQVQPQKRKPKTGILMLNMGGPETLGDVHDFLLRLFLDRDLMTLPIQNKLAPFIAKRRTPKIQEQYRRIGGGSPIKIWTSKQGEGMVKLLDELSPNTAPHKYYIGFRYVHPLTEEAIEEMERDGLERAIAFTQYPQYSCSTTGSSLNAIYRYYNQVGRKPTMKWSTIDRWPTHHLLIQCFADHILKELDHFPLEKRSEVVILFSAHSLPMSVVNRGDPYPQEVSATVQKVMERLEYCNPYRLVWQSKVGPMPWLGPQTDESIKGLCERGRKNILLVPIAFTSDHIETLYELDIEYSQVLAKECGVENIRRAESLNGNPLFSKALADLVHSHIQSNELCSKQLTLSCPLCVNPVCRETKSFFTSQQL
The note with it: protein FECH; average of three replicates. In outline:
as §1

Experiment [7] has as its target T7, ~100 representative kinases (Homo sapiens, UniProt Q9H2G2).
T7 construct: Recombinant protein kinase domains with a concentration of 2 μM
The conditions noted are these: Protein SLK; DSF; average of three replicates. Put shortly: as §1

T7 sequence (Q9H2G2 whole entry, the tested form may be a part): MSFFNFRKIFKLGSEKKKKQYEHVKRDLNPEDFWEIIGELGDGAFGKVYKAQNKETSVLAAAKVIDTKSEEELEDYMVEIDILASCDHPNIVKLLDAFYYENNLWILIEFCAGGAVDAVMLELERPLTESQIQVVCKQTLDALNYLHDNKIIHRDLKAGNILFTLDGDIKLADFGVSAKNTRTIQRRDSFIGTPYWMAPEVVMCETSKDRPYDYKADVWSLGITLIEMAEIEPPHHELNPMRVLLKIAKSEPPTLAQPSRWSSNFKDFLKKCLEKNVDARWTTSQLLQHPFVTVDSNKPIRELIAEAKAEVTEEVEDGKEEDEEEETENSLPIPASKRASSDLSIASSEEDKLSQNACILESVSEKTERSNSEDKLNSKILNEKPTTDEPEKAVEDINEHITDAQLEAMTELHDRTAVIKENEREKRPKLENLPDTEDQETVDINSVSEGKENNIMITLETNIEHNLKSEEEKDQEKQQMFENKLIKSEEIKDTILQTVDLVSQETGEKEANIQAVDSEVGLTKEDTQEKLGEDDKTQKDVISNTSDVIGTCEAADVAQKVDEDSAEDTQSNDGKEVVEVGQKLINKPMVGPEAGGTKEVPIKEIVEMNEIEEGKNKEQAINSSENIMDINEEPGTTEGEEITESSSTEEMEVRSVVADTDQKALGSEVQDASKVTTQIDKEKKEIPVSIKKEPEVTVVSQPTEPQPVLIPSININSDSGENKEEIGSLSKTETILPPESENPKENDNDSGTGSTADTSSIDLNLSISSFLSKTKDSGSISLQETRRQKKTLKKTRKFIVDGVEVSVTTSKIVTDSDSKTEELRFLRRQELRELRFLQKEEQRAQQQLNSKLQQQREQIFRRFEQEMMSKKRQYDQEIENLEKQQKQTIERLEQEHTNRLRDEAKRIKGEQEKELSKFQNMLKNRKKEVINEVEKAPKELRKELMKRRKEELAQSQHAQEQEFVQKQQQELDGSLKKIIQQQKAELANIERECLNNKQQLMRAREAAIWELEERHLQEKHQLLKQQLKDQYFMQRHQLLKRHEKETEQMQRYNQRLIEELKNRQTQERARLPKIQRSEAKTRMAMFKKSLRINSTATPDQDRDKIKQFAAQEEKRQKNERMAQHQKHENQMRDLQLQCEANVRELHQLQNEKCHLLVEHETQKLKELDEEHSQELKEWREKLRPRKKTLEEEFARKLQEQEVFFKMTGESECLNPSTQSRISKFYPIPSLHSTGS
T4 sequence (O95747 whole entry, the tested form may be a part): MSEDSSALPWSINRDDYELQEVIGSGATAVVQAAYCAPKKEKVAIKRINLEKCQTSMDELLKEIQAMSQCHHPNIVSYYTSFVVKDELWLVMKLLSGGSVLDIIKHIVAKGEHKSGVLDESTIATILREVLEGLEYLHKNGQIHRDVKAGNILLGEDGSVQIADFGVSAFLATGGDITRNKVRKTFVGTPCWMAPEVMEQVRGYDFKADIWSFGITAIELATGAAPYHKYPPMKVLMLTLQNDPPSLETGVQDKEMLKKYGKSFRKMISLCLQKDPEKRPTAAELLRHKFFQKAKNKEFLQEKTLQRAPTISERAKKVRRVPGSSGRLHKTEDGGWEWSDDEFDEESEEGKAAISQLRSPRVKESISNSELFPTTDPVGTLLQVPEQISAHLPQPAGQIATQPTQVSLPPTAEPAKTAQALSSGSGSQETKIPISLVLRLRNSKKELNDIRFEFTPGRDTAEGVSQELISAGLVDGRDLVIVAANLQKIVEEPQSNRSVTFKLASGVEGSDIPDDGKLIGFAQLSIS
T5 sequence (P29317 24-976): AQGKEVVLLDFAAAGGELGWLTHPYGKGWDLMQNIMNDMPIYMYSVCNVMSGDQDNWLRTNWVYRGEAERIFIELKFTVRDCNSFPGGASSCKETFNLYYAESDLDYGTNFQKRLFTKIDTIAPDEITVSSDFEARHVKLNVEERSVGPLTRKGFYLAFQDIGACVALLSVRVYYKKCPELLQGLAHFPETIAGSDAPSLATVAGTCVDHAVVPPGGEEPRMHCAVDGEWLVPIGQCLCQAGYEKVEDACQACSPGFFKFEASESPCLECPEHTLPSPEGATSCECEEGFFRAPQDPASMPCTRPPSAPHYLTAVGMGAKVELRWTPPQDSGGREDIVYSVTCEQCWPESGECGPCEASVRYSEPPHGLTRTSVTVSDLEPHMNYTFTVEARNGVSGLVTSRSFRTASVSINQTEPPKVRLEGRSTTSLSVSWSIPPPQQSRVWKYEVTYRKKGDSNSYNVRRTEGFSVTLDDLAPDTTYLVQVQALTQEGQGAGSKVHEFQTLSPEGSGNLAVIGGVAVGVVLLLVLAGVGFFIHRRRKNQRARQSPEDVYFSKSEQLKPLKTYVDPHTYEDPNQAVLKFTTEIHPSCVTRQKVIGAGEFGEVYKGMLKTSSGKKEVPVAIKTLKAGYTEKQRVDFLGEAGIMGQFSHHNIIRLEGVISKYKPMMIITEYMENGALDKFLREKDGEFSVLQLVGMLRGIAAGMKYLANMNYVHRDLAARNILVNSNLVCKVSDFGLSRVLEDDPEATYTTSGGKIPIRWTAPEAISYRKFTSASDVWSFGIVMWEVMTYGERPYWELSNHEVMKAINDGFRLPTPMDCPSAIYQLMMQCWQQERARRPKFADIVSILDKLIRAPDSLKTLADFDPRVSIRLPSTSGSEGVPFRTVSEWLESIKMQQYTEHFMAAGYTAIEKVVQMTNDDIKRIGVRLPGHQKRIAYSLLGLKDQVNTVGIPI

Consider `O=C(Nc1cccc(-c2c[nH]c3ncnc(N4CCOCC4)c23)c1)C1(C(=O)Nc2ccc(F)c(F)c2)CC1` [Compound 17], for which the dTm in experiment [1] worked out at 7.52 K; in experiment [2], 5.80 K; in experiment [3] it was 9.62 K; in experiment [4], 2.20 K; in experiment [5], 4.47 K; in experiment [6] it was 1.70 K. Also, the dTm in experiment [7] is on record as 7.02 K.

With `CNC(=O)c1cc(Oc2ccc(NC(=O)Nc3cc(C(C)(C)C)nn3-c3ccc4ncccc4c3)c(F)c2)ccn1` [Rebastinib, reference compound], the dTm in experiment [1] is recorded as 3.80 K; in experiment [2] it was 0.53 K; in experiment [3], 6.17 K; in experiment [4], 1.75 K; in experiment [5] it was 10.76 K; in experiment [6] it was -5.98 K. In experiment [7], this compound returned a dTm of 14.21 K.

Turning to `O=C(Nc1cccc(-c2c[nH]c3ncnc(N4CCOCC4)c23)c1)C1(C(=O)Nc2cc(Br)c(F)cc2F)CC1` [Compound 25], the dTm in experiment [1] is on record as 9.25 K; in experiment [2], 5.47 K; in experiment [3], 0.00 K; in experiment [4] it was 0.13 K; in experiment [5], 1.14 K; in experiment [6] it was -0.79 K. The dTm in experiment [7] was 1.44 K.

`CC(C)(C)c1cc(NC(=O)Nc2cccc(-c3c[nH]c4ncnc(N5CCOCC5)c34)c2)n(-c2ccc3ncccc3c2)n1` [Compound 28]: the dTm is 7.06 K in experiment [1]; 6.08 K in experiment [2]; 3.84 K in experiment [3]; 4.85 K in experiment [4]; 14.41 K in experiment [5]; 1.86 K in experiment [6]. The compound also gave a dTm in experiment [7] of 13.85 K.

With `COc1cc(C(=O)N2CCOCC2)c(F)cc1Nc1nc(N(C)C)c2c(Cl)c[nH]c2n1` [Compound 36], the dTm in experiment [1] was 4.06 K; in experiment [2] it was 10.31 K; in experiment [3] it was 10.15 K; in experiment [4], 1.88 K; in experiment [5] it was -0.10 K; in experiment [6], -1.01 K. Moreover, the dTm in experiment [7] is listed as -1.49 K.

On to `Cc1ccc(-n2nc(C(C)(C)C)cc2NC(=O)Nc2cccc(-c3c[nH]c4nc(Cl)nc(N5CCOCC5)c34)c2)cc1` [Compound 30], for which the dTm is 0.27 K in experiment [1]; 1.92 K in experiment [2]; 0.26 K in experiment [3]; -1.12 K in experiment [4]; 3.08 K in experiment [5]; -11.52 K in experiment [6]. In experiment [7], this compound displayed a dTm of 8.39 K.

Take `CC(C)(C)c1cccc(NC(=O)C2(C(=O)Nc3cccc(-c4c[nH]c5ncnc(N6CCOCC6)c45)c3)CC2)c1` [Compound 22]: the dTm in experiment [1] is given as 11.44 K; in experiment [2], 5.69 K; in experiment [3], 9.02 K; in experiment [4], 4.04 K; in experiment [5], 3.30 K; in experiment [6] it was -3.46 K. The dTm in experiment [7] was 5.75 K.

Turning to `COc1ccc(NC(=O)C2(C(=O)Nc3cccc(-c4c[nH]c5ncnc(N6CCOCC6)c45)c3)CC2)cc1` [Compound 16], the dTm in experiment [1] stood at 5.26 K; in experiment [2], 3.98 K; in experiment [3], 4.53 K; in experiment [4], 0.35 K; in experiment [5], 1.72 K; in experiment [6], 0.0636 K. For the same compound, the dTm in experiment [7] is 1.57 K.

On to `CC(=O)N1CCN(c2nc(Cl)nc3[nH]cc(-c4cccc(NC(=O)Nc5cc(C(C)(C)C)nn5-c5ccc(C)cc5)c4)c23)CC1` [Compound 31], for which the dTm in experiment [1] is given as 0.92 K; in experiment [2] it was 1.72 K; in experiment [3] it was 0.19 K; in experiment [4] it was -2.10 K; in experiment [5] it was 4.11 K; in experiment [6], -9.46 K. The compound also registered a dTm in experiment [7] of 9.23 K.

In the case of `Cc1cc(NC(=O)C2(C(=O)Nc3ccc(F)cc3)CC2)cc(-c2c[nH]c3ncnc(N4CCOCC4)c23)c1` [Compound 6], the dTm in experiment [1] is 3.31 K; in experiment [2], 3.77 K; in experiment [3] it was 7.27 K; in experiment [4] it was -0.63 K; in experiment [5] it was 3.21 K; in experiment [6] it was -0.18 K. For the same compound, in experiment [7], the dTm was 4.64 K.

`O=C(Nc1cccc(-c2c[nH]c3ncnc(N4CCOCC4)c23)c1)C1(C(=O)Nc2ccc(F)c(Br)c2F)CC1` [Compound 26]: the dTm in experiment [1] was 7.33 K; in experiment [2], 5.24 K; in experiment [3], 5.97 K; in experiment [4], -0.0329 K; in experiment [5], 2.30 K; in experiment [6], 0.09 K. The compound also came in with a dTm in experiment [7] of 2.31 K.

With `O=C(Nc1cccc(-c2c[nH]c3ncnc(N4CCOCC4)c23)c1)C1(C(=O)Nc2cccc3c2CCC3)CC1` [Compound 11], the dTm is given as 5.81 K in experiment [1]; 5.91 K in experiment [2]; 7.44 K in experiment [3]; 0.42 K in experiment [4]; 1.56 K in experiment [5]; -8.36 K in experiment [6]. This compound yielded a dTm in experiment [7] of 0.75 K.

With `O=C(Nc1ccc(F)cc1)C1(C(=O)Nc2cccc(-c3c[nH]c4ncnc(N5CCOCC5)c34)c2)CC1` [Compound 2], the dTm in experiment [1] was 7.39 K; in experiment [2], 4.96 K; in experiment [3], 8.51 K; in experiment [4], 1.55 K; in experiment [5], 6.37 K; in experiment [6], -0.03 K. In experiment [7], the dTm stood at 6.64 K.

In the case of `CCSc1nc(NC)c2c(-c3cccc(NC(=O)Nc4cc(C(C)(C)C)nn4-c4ccc(C)cc4)c3)c[nH]c2n1` [Compound 32], the dTm was 0.44 K in experiment [1]; 0.66 K in experiment [2]; 0.48 K in experiment [3]; -0.46 K in experiment [4]; 0.36 K in experiment [5]; -4.54 K in experiment [6]. In addition, the dTm in experiment [7] was 5.13 K.
